From PMC3163098 (2011) come the findings set out here.

Common to all, as to assay type: binding
The target in assay [1] is T1, cytochrome P450 2B4 (Oryctolagus cuniculus, UniProt P00178, H226Y).
T1 sequence (P00178 28-491 H226Y): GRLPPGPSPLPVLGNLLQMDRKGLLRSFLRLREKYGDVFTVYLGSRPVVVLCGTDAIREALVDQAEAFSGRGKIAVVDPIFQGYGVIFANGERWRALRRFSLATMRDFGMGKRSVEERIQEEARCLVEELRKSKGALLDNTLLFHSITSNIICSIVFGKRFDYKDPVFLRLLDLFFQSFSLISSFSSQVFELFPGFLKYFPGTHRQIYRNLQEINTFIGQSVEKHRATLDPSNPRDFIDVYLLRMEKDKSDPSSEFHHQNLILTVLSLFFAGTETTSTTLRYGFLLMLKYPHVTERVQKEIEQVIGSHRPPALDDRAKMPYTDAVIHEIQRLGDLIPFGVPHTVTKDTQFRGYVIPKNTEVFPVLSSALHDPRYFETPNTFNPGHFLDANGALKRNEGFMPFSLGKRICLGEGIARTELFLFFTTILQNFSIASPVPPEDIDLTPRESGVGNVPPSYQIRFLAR
The experiment in a line: UV-visible difference spectral titration.

In assay [2] the target is T1, cytochrome P450 2B4. The experiment in a line: UV-visible competition with benzphetamine.
Assay [3] has as its target T1, cytochrome P450 2B4. Nature of the assay: UV-visible difference spectral titration. The source holds these as a separate data set.
Assay [4] deals with T1, cytochrome P450 2B4. Nature of the assay: UV-visible difference spectral titration. This is another data set of the same source.

pKd: −log10 of the molar value.

With `Cc1c(N)c(=O)n(-c2ccccc2)n1C` [AAP, aminoantipyrine], the negative logarithm of the Kd (pKd) on cytochrome P450 2B4 [1] was 2.59. `Cc1c(N(C)C)c(=O)n(-c2ccccc2)n1C` [AP, amidopyrine] had a pKd on cytochrome P450 2B4 [2] of 2.70. Take `C[C@@H](Cc1ccccc1)N(C)Cc1ccccc1` [BP, benzphetamine]: the pKd on cytochrome P450 2B4 [3] is 4.47. Regarding `CNc1c(C)n(C)n(-c2ccccc2)c1=O` [DMAP, desmethylamidopyrine], the pKd on cytochrome P450 2B4 [4] is 2.49.

The pKd is −log10 of the Kd, conventionally taken in molar units. High values mean a low Kd, low ones a high Kd.
